Test system: BALB/c mice, house dust mite (HDM)-induced inflammation and AHR
Format: in vivo
Method: The impact of HPBCD on asthma-associated inflammation and bronchial hyperresponsiveness was investigated in a mouse model of airway inflammation and hyperresponsiveness.
Six to seven mice per group were tested. Two-tailed Mann-Whitney test were performed with p-values of *P<0.05, **P<0.01 in two independent experiments.
Two intranasal instillations of house dust mite were performed on days 0 and 7 to induce the migration of specific memory CD4+ T-cells into lung parenchyma, followed by a challenge instillation on day 14. […] The last house dust mite instillation was preceded by two days of HPBCD or PBS inhalations and followed by three inhalations until sacrifice (FIG. 1A). […] Airway responsiveness was evaluated by exposing animals to increasing doses of inhaled methacholine and by measuring Newtonian resistances representing the resistance of central or conducting airways. […] The bronchoalveolar lavage fluid (BALF) was then recovered and analyzed for cell content. […] The effect of HPBCD inhalation on T-cell numbers in lung parenchyma was investigated by flow cytometry.
Males BALB/c mice of 6 to 8 weeks old were purchased from Janvier Labs (Saint-Berthevin, France). All mice were bred and housed in University facilities. All experiences and protocols were previously approved by local ethic (animal care and use) committee from the University of Liege.
Mice were lightly isoflurane-anesthetized and received an intra-nasal (i.n) instillation of HDM extract (100 μg; 50 μl) in endotoxin-free saline on days 0, 7 and 14. Mice were subjected to inhalation (generated by ultrasonic nebulizer (Devilbiss 2000)) of HPBCD 10 mM or endotoxin-free saline for 40 minutes between day 12 and 16. On day 14, they received the inhalation 1 h before the last i.n. instillation of HDM. After measurement of bronchial responsiveness using the FlexiVent System, mice were sacrificed on day 17. Mice submitted to ovalbumin as allergen were i.p injected with 10 mcg ovalbumin grade 5 and exposed to ovalbumin grade 3 by inhalation between day 21 and 25. Mice were treated with HPBCD 10 mM given by inhalation between day 19 and 25. After measurement of bronchial responsiveness using the FlexiVent System, mice were sacrificed on day 26.
Mice were anesthetized by intraperitoneal injection with a mixture of ketamine (10 mg/ml, Merial, Brussel, Belgium) and xylazine (1 mg/ml, VMD, Arendonk, Belgium). A tracheotomy was performed by insertion of a 20 gauge polyethylene catheter into the trachea. Mice were ventilated with a flexiVent small animal Ventilator® (SCIREQ, Montreal, Canada) as previously described (18). Respiratory parameters following methacholine challenge (3, 6, and 12 gr/l (or 24 gr/l)) were evaluated using a 3 sec broadband signal to measure input impedance from 1 to 20.5 Hz and to calculate constant-phase model parameters (Quick-prime 3). Newtonian resistance (Rn) was the main parameter measured during the challenge.
Mice were sacrificed and a bronchoalveolar lavage was performed using PBS-EDTA 0.05 mM (Calbiochem, Darmstadt, Germany). Cells were recovered by gentle manual aspiration. After centrifugation of bronchoalveolar fluid (BALF) (1200 rpm; 10 min; 4° C.), the cell pellet was resuspended in 0.5 ml PBS-EDTA 0.05 mM. The differential cell counts were performed on cytocentrifuged preparations (Cytospin) after Diff-Quick (Dade, Belgium) staining.
Left lung was excised and snap frozen in liquid nitrogen. Right lung was infused with 4% paraformaldehyde, embedded in paraffin and used for histology. Sections of 5 μm thickness were cut off from paraffin and were stained with haematoxylin-eosin to estimate the extent of inflammation (18) and with Alcian blue (mucin stain).
To obtain single-lung-cell suspensions, lungs were perfused with 10 ml HBSS through the right ventricle, razor-cut into small pieces and digested for 1 hour at 37° C. in 1 mg/ml collagenase A (Roche) and 0.05 mg/ml DNasel (Roche) in HBSS. […]

`CC(O)COC[C@H]1O[C@@H]2O[C@H]3[C@H](O)[C@@H](O)[C@@H](O[C@H]4[C@H](O)[C@@H](O)[C@@H](O[C@H]5[C@H](O)[C@@H](O)[C@@H](O[C@H]6[C@H](O)[C@@H](O)[C@@H](O[C@H]7[C@H](O)[C@@H](O)[C@@H](O[C@H]8[C@H](O)[C@@H](O)[C@@H](O[C@H]1[C@H](O)[C@H]2O)O[C@@H]8COCC(C)O)O[C@@H]7COCC(C)O)O[C@@H]6COCC(C)O)O[C@@H]5COCC(C)O)O[C@@H]4COCC(C)O)O[C@@H]3COCC(C)O` (stereo partly drawn) [HPBCD, 2-hydroxypropyl-beta-cyclodextrin] was tested, and the “airway responsiveness to methacholine (Newtonian resistance)” value (HPBCD 10 mM inhalation vs PBS, HDM-challenged mice, FIG. 1B) was “significantly decreased”, the “extent of inflammation around the bronchi” value (HPBCD vs placebo, FIG. 1D) was “reduced” and the “number of Alcian blue positive mucus producing epithelial cells” value (HPBCD vs placebo, FIG. 1E) was “reduced”. The “eosinophilic inflammation in BALF” value (HPBCD-exposed vs placebo, FIG. 1C) was “significantly decreased”, the “number of TH2 cells (CD3+CD4+T1ST2+ ICOS+) in lung parenchyma” value (mouse, in vivo) was “nor the number of TH2 cells (CD3+CD4+T1ST2+ ICOS+) were modified” and the “number of total CD4+ T-cells (CD3+CD4+) in lung parenchyma” value (mouse, in vivo) was “Neither the number of total CD4+ T-cells (CD3+CD4+) nor the number of TH2 cells (CD3+CD4+T1ST2+ ICOS+) were modified”.

— patent US20210386668A1, “Cyclodextrin for use in the treatment and prevention of late phase bronchoconstriction in allergen-induced asthma” (Universite de Liege, priority 2020, published 2021)
